Laboratory results: US20210188763A1, “COMPOUNDS AND METHODS FOR HEMATOPOIETIC REGENERATION” (The Regents of the University of California, priority 2017, published 2021)

Key:
[1] = test system: Rac1; assay: Rac1 activation assay (G-LISA); format: cell-based; conditions: cells incubated 2 minutes at 1 and 10 μg/mL
Method: Cell cultures were incubated with each tested compound for 2 minutes at concentrations of 1 and 10 μg/mL, after which the cells were tested for Rac1 activation using a G-LISA activation assay. The cells were lysed and the lysates introduced into wells containing Rac-GTP-binding protein, then sequentially incubated with anti-Rac1 antibody and a horseradish peroxidase-linked secondary antibody. The amount of horseradish peroxidase was then quantitated to evaluate the Rac1 activation potency of each compound studied.

[2] = biological target: T1, PTPRS (Homo sapiens, UniProt Q13332); assay: In vitro phosphatase assay (modified Malachite Green Assay); format: biochemical; conditions: substrate titration of PTPσ; Vmax inhibited, Km constant
T1 construct: The two interacellular catalytic domains (D1D2) of PTPRS were cloned into a pET28a vector; made in house; host or cells: E. coli BL21
T1 sequence (Q13332 1304-1948 limits assumed): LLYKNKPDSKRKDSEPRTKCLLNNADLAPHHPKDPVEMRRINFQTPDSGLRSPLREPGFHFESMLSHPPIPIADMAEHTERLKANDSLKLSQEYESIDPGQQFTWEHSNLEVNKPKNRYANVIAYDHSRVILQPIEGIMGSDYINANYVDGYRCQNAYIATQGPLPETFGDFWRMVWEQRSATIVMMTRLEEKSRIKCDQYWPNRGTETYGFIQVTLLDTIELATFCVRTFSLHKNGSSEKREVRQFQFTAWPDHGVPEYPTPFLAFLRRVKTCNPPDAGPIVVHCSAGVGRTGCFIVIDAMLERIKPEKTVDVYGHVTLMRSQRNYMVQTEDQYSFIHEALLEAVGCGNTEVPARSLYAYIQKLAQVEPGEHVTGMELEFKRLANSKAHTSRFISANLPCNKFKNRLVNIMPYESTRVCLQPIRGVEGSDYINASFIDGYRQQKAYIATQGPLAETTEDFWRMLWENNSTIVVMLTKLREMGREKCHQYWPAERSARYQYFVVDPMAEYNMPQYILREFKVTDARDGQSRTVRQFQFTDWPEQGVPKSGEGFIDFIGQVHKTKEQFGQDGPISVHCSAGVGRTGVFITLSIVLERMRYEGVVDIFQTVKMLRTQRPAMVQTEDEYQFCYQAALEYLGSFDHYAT
Method: The two interacellular catalytic domains (D1D2) of PTPRS were cloned into a pET28a vector and overexpressed in E. coli BL21 and purified as described in Jeon T J, et al. Structure of the Catalytic Domain of Protein Tyrosine Phosphatase Sigma in the Sulfenic Acid Form. Molecules and Cells. 2013; 36(1):55-61. doi:10.1007/s10059-013-0033-x. Enzymatic activity of PTPRS was assayed using a modified version of the Malachite Green Assay (described in Lorenz U. Protein Tyrosine Phosphatase Assays. Current protocols in immunology/edited by John E Coligan. [et al]. 2011; CHAPTER: Unit-11.7. doi:10.1002/0471142735.im1107s93) and the Tyrosine Phosphatase Assay Kit (Promega Coorperation). Unless stated otherwise, standard assays were carried out using 50 nM PTPRS protein in 1× Buffer (10 mM Tris, 5 mM MgCl2, 10 mM NaCl, 0.02% Tween) and Tyr Phosphopeptide as substrate (100 uM for FIG. 1 and 50-1200 uM in FIG. 2). […]
For IC50 determination, rates normalized relative to uninhibited controls (DMSO) were plotted against compound concentration and fitted using a four-parameter nonlinear regression curve fit ((y=[(A−D)(1+{xC−1}B)−1]+D), (Prism 6.0, Graphpad Software). For mechanism studies and determination of the enyzme's Km and Vmax, data were analyzed using a nonlinear regression fit according to classical Mechaelis-Menten kinetics model Y=Vmax*X/(Km+X) (Prism 6.0, Graphpad Software).

[3] = test system: irradiated mice; assay: Survival and HSC regeneration of irradiated mice; format: in vivo; conditions: for Survival of irradiated mice: lethal dose irradiation (750 cGy)
Source text: (§1) A) CFU-GEMMs produced by TSF media vs. TSF+GJ001 (p=0.001). B) Percentage of BM KSL cells expressing Rac1GTP (p=0.008). C) Survival of mice irradiated with 750 cGy followed by treatment with DJ001 or vehicle (p=0.0007). D) % BM KSL cells (blue) and % ckit^+sca-1^−lin^− progenitors (gray) at day +21 in irradiated mice.
10 week old female C57BL/6 mice were irradiated with 750 cGy TBI, which is lethal for approximately 50% of C57BL/6 mice by day +30 (LD50/30), using a Shepherd Cesium-137 irradiator. Twenty four hours post-irradiation, mice were administered daily subcutaneous injections of 5 mg/kg DJ001 (or DJ009) or vehicle in a volume of 100 μL for 10 days. DJ001 injections were prepared in PBS, 0.5% Tween 80, and 10% DMSO. Corresponding vehicle injections contained PBS, 10% DMSO and 0.5% Tween 80. PB complete blood counts were measured using a Hemavet 950 instrument (Drew Scientific) at day +10 post-irradiation. For hematopoietic analysis, BM cells were collected at day +10 post-irradiation. To study whether DJ001 increased survival rates through activation of RAC signaling, the RAC inhibitor, EHT1864 (Selleckchem), was dissolved in PBS and administered intraperitoneally, 40 mg/kg every other day, to 750 cGy irradiated mice until day +10. For DJ009 studies, ten week old female C57BL/6 mice were irradiated with 550 cGy TBI and then given daily subcutaneous injections of 5 mg/kg of DJ009 or vehicle in a volume of 100 μL for 3 days. DJ009 injections were prepared in PBS, 0.5% Tween 80, and 10% DMSO. Vehicle injections contained 10% DMSO and 0.5% Tween 80. At day +3 post 550 cGy irradiation, we collected PB and BM cells for CBCs and hematopoietic analysis. Exemplary results of this assay are depicted in FIG. 8 and FIG. 17.

[4] = test system: Rac1; assay: Rac1 signaling in HSCs (BM KSL cells expressing Rac1GTP); format: cell-based
Method: as §1
Intracellular flow cytometric analysis was performed on irradiated (300 cGy) or non-irradiated, sorted KSL cells after treatment with 1 μg/mL DJ001 or control (equal volumes of DMSO) for 24 hours. At 24 hours after irradiation, cells were fixed with 4% PFA for 10 min, followed by permeabilization using 0.25% saponin in PBS. Cells were washed again and stained with antibody at the recommended concentrations for 30 minutes at room temperature. Intracellular antibodies and phospho-flow antibodies used were: FITC-conjugated anti-BCL-XL (Abcam #ab26148), active RAC1-GTP antibody (NewEast Biosciences #26903), and anti-PAK1 (phospho S144)+PAK2 (phospho S141)+PAK3 (phospho S154) antibody (Abcam #ab40795).

[5] = test system: hematopoietic colony formation; assay: Hematopoietic colony formation (CFC assay); format: cell-based
Method: CFC assays (colony-forming unit-granulocyte monocyte (CFU-GM), burst-forming unit-erythroid (BFU-E), and colony-forming unit-granulocyte erythroid monocyte megakaryocyte (CFU-GEMM) were performed using MethoCult GF M3434 (Stemcell Technologies), as we have previously described^1,5. For all in vitro assays, BM CD34^−KSL cells, KSL cells, and Lin cells were cultured in TSF media (IMDM, 10% FBS, 1% pen-strep, 20 ng/mL recombinant mouse Thrombopoietin (TPO), 125 ng/mL recombinant mouse Stem Cell Factor (SCF), 50 ng/mL recombinant mouse Flt3 ligand) and treated as described. Recombinant mouse SCF, Flt-3 ligand, and TPO were purchased from R&D Systems. For competitive repopulation assays, BM cells were isolated from donor 10-12 week old female CD45.2^+ mice. Recipient 10 week old female CD45.1^+ B6.SJL mice were irradiated with 950 cGy TBI using a Cs137 irradiator, and donor BM cells were administered via tail vein injection along with a competing dose of 1×10^5 non-irradiated host BM cells. Multilineage donor hematopoietic cell engraftment was measured in the PB by flow cytometry.

| SMILES | Rac1 Activation [1] | also measured |
| --- | --- | --- |
| CN(C)c1cccc(N/C=C\C(=O)c2ccccc2)c1 [DJ008] | no |  |
| CCCCN/C=C\C(=O)c1ccccc1 [DJ017] | no |  |
| O=C(/C=C\Nc1ccccc1)c1ccccc1 [DJ013] | yes |  |
| CN(C)S(=O)(=O)c1cccc(N/C=C\C(=O)c2ccccc2)c1 [DJ016] | no |  |
| CC(=O)c1cccc(N/C=C\C(=O)c2ccccc2)c1 [DJ006] | no |  |
| O=C(/C=C\Nc1cccc(O)c1)c1ccccc1 [DJ015] | yes |  |
| O=C(/C=C\Nc1cccc([N+](=O)[O-])c1)c1ccccc1 [DJ001, (Z)-3-((3-nitrophenyl)amino)-1-phenylprop-2-en-1-one] | yes | Mechanism of inhibition [2]: classical noncompetitive inhibitor; HSC regeneration in irradiated mice ([3]; irradiated mice): accelerates HSC regeneration; Survival of irradiated mice [3]: dramatically increases mice survival; Rac1 signaling in HSCs [4]: activates Rac1 signaling |
| O=C(/C=C\Nc1cccc(C(F)(F)F)c1)c1ccccc1 [DJ003] | yes | Hematopoietic colony formation [5]: increases hematopoietic colony formation; Survival of irradiated mice [3]: improves survival of irradiated mice |
| O=C(/C=C\Nc1cc(F)cc(F)c1)c1ccccc1 [DJ009, (Z)-3-((3,5-difluorophenyl)amino)-1-phenylprop-2-en-1-one] | yes |  |
| CC(C)(C)[Si](C)(C)Oc1cccc(N/C=C\C(=O)c2ccccc2)c1 [DJ014] | yes |  |
| O=C(/C=C\NCc1ccco1)c1ccccc1 [DJ018] | no |  |
| O=C(/C=C\Nc1cccc(-c2ccccc2)c1)c1ccccc1 [DJ007] | no |  |
| Cc1cc(C)cc(N/C=C\C(=O)c2ccccc2)c1 [DJ011] | yes |  |
| Cc1cccc(N/C=C\C(=O)c2ccccc2)c1 [DJ004] | yes |  |
| O=C(/C=C\Nc1cccc(F)c1)c1ccccc1 [DJ002] | no |  |
| COc1cccc(N/C=C\C(=O)c2ccccc2)c1 [DJ005] | no |  |
| CC(C)(C)N/C=C\C(=O)c1ccccc1 [DJ019] | no |  |
| COc1cc(N/C=C\C(=O)c2ccccc2)cc(OC)c1 [DJ012] | yes |  |
